Among the test systems are HCT-116 colon; MDA-MB-231 breast; OVCAR-5 ovarian; LOX IMVI melanoma; SK-MEL-5 melanoma; NCI-H522 lung; SF-539 CNS; M14 melanoma; SN12C renal; HOP-62 NSCLC.
Assay in all cases: growth of human tumour cells (NCI), 48 h

Structures are written as SMILES.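 Grown in 96-well plates, cells were treated for 48 hours with each compound at five concentrations. Insufficient inhibition: endpoint recorded as highest concentration tested. The concentration for full growth arrest is given as TGI.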 Where a SMILES comes first, the peptide text is derived from it. The star is where a group is joined. Fmoc = O=C(OCC1c2ccccc2-c2ccccc21)*; OBn = c1ccc(CO*)cc1; tBu = CC(C)(C)* A value given as a limit tells only on which side of the number the result lay.

With `CCCCCCCCCCCCCCCCOC[C@H](COC(c1ccccc1)(c1ccccc1)c1ccccc1)O[P+](=S)OC` (stereo partly specified), the TGI with HCT-116 colon, with MDA-MB-231 breast, in the experiment with OVCAR-5 ovarian, in the experiment with LOX IMVI melanoma, in the experiment on SK-MEL-5 melanoma and with NCI-H522 lung was more than 100 µM each time. The TGI with SF-539 CNS, with M14 melanoma and with SN12C renal was more than 100 µM each time.

For the compound `CC1(O)CC23CC(O)C4(O)C(CC(O)C4(C)C)C(C)(O)C2CCC1C3O` (stereo unspecified), the TGI in the experiment with HCT-116 colon, in the experiment on MDA-MB-231 breast, with OVCAR-5 ovarian, in the experiment on LOX IMVI melanoma, with SK-MEL-5 melanoma and in the experiment on NCI-H522 lung was more than 100 µM in each case. Besides, the TGI with SF-539 CNS, in the experiment on M14 melanoma and with SN12C renal was more than 100 µM throughout.

As to `CC(OC(C)(C)C)C(NC(=O)OCC1c2ccccc2-c2ccccc21)C(=O)NC(Cc1ccccc1)C(=O)OCc1ccccc1` (stereo unspecified) (Fmoc-Thr(tBu)-Phe-OBn; configuration not given here), the TGI with HCT-116 colon, with MDA-MB-231 breast, in the experiment on OVCAR-5 ovarian, with LOX IMVI melanoma, with SK-MEL-5 melanoma and with NCI-H522 lung was more than 100 µM throughout. Further, the TGI in the experiment on HOP-62 NSCLC, in the experiment with SF-539 CNS, in the experiment with M14 melanoma and in the experiment with SN12C renal was more than 100 µM throughout.

Take `CCOC(=O)c1c(-c2ccc(Cl)cc2)c(C#N)c(=S)n(C2OC(COC(C)=O)C(OC(C)=O)C(OC(C)=O)C2OC(C)=O)c1C` (stereo unspecified): the TGI in the experiment on HCT-116 colon, in the experiment with MDA-MB-231 breast, in the experiment on OVCAR-5 ovarian, with LOX IMVI melanoma, in the experiment with SK-MEL-5 melanoma and in the experiment with NCI-H522 lung was more than 100 µM in each case. In addition, the TGI in the experiment with HOP-62 NSCLC, in the experiment on SF-539 CNS, with M14 melanoma and in the experiment on SN12C renal was more than 100 µM throughout.

For the compound `COc1cc(-c2cc(OC)c(OC)c3ccc(Br)cc23)c2cc(Br)ccc2c1OC`, the TGI was 24.9 µM in the experiment on HCT-116 colon; 49.5 µM with MDA-MB-231 breast; 39.2 µM in the experiment on OVCAR-5 ovarian; 46.6 µM in the experiment on LOX IMVI melanoma; more than 100 µM in the experiment with SK-MEL-5 melanoma; 72.1 µM in the experiment on NCI-H522 lung. Further, the TGI turned out to be 44.7 µM with HOP-62 NSCLC, 38.8 µM with SF-539 CNS, 44.7 µM with M14 melanoma and 81.6 µM in the experiment with SN12C renal.

As to `CCOC(=O)C(NC(=O)c1ccccc1)(Nc1ccc(S(=O)(=O)Nc2cc(C)on2)cc1)C(F)(F)F` (stereo unspecified), the TGI in the experiment on HCT-116 colon, in the experiment on MDA-MB-231 breast, in the experiment with OVCAR-5 ovarian, in the experiment with LOX IMVI melanoma, in the experiment with SK-MEL-5 melanoma and in the experiment on NCI-H522 lung was more than 100 µM in each case. For the same compound, the TGI in the experiment on HOP-62 NSCLC, in the experiment with SF-539 CNS, with M14 melanoma and in the experiment with SN12C renal was more than 100 µM each time.

For `CN(C)CCCNC(=O)N/N=C/c1ccccn1`, the TGI in the experiment on HCT-116 colon, with MDA-MB-231 breast, in the experiment with OVCAR-5 ovarian, with LOX IMVI melanoma, in the experiment with SK-MEL-5 melanoma and in the experiment on NCI-H522 lung was more than 10 µM each time. In addition, the TGI with HOP-62 NSCLC, in the experiment with SF-539 CNS, in the experiment with M14 melanoma and in the experiment with SN12C renal was more than 10 µM each time.

Take `CCOC(=O)/C(=C/c1cn(C(C)=O)c2ccccc12)P(=O)(OC)OC`: the TGI was more than 100 µM with HCT-116 colon; more than 100 µM with MDA-MB-231 breast; more than 100 µM in the experiment with OVCAR-5 ovarian; 79.2 µM with LOX IMVI melanoma; more than 100 µM in the experiment with SK-MEL-5 melanoma; 79.3 µM with NCI-H522 lung. The TGI with HOP-62 NSCLC, in the experiment on M14 melanoma and with SN12C renal was more than 100 µM throughout.

Consider `Clc1ccc(-c2nn3c(COc4ccc(OCc5nnc6sc(-c7ccc(Cl)cc7)nn56)c(Cl)c4)nnc3s2)cc1`, for which the TGI in the experiment on HCT-116 colon is more than 100 µM; with MDA-MB-231 breast, more than 100 µM; in the experiment on OVCAR-5 ovarian it was 71.7 µM; in the experiment with LOX IMVI melanoma it was 35.6 µM; with SK-MEL-5 melanoma, 80.2 µM; with NCI-H522 lung it was 37.4 µM. Also, the TGI with HOP-62 NSCLC was 77.7 µM; in the experiment with SF-539 CNS, more than 100 µM; in the experiment on M14 melanoma, more than 100 µM; with SN12C renal, more than 100 µM.

For `Cn1c(COC(=O)NC2CCCCC2)c(COC(=O)NC2CCCCC2)c2ccc3ccccc3c21`, the TGI was more than 100 µM with HCT-116 colon; more than 100 µM with MDA-MB-231 breast; more than 100 µM with OVCAR-5 ovarian; more than 100 µM with LOX IMVI melanoma; more than 100 µM in the experiment with SK-MEL-5 melanoma; 31.5 µM in the experiment on NCI-H522 lung. Also, the TGI was more than 100 µM in the experiment on HOP-62 NSCLC, 66.2 µM with SF-539 CNS and more than 100 µM in the experiment on M14 melanoma.

As to `CC(C)(C)OC(=O)N1CCC2(CC1)C(=O)NCN2c1ccccc1`, the TGI with HCT-116 colon, in the experiment with MDA-MB-231 breast, in the experiment on OVCAR-5 ovarian, in the experiment with LOX IMVI melanoma, in the experiment on SK-MEL-5 melanoma and in the experiment on NCI-H522 lung was more than 100 µM in each case. The TGI with HOP-62 NSCLC, with SF-539 CNS, in the experiment on M14 melanoma and in the experiment on SN12C renal was more than 100 µM throughout.

For `CSC1=C(C)C(/C=N/Nc2ccc([N+](=O)[O-])cc2)=C(C)N(c2ccccc2)S1(=O)=O`, the TGI in the experiment on HCT-116 colon, in the experiment with MDA-MB-231 breast, with OVCAR-5 ovarian, in the experiment with LOX IMVI melanoma, in the experiment with SK-MEL-5 melanoma and in the experiment on NCI-H522 lung was more than 100 µM in each case. Besides, the TGI in the experiment on HOP-62 NSCLC, with SF-539 CNS, in the experiment with M14 melanoma and with SN12C renal was more than 100 µM each time.

As to `C[N+](C)([O-])C12CC3CC(CC(C3)C1)C2`, the TGI in the experiment with HCT-116 colon is 91.2 µM; with MDA-MB-231 breast, more than 100 µM; in the experiment on OVCAR-5 ovarian it was more than 100 µM; with LOX IMVI melanoma, 63.8 µM; in the experiment on SK-MEL-5 melanoma, more than 100 µM; in the experiment on NCI-H522 lung it was 65.7 µM. Also, the TGI with HOP-62 NSCLC, in the experiment with SF-539 CNS, in the experiment on M14 melanoma and with SN12C renal was more than 100 µM in each case.
